From patent US8217075B2, “2-amino-2-phenyl-alkanol derivatives, their preparation and pharmaceutical compositions containing them” (Oroxcell, priority 2008, dated 2012)

How the values were obtained:
[1] = test system: abdominal pain by irritation and distension of the colon; conditions: rats, from 13.1 mg/kg and at doses of 26.2 mg/kg by subcutaneous route
[2] = test system: formalin-induced short- and long-phase pain; conditions: rat, dose of 39.3 mg/kg by subcutaneous route

For CC[C@@](COC(=O)c1cc(OC)c(OC)c(OC)c1)(c1ccccc1)N(C)C(=O)OCc1ccc(OC)cc1 [Example 4], the “activity in abdominal pain test” value [1] was “demonstrated activity” and the “short- and long-phase activity” value [2] was “demonstrated short- and long-phase activity”.
